Source: ChEMBL document CHEMBL5500392, “Functional and Structural Characterization of Clinical-Stage Janus Kinase 2 Inhibitors Identifies Determinants for Drug Selectivity” (J Med Chem, 2024)
Calls of active or inactive are those of the source. The calls are words filed in the database; no cut-off is given here.

Key:
[1] = target: T1, Non-receptor tyrosine-protein kinase TYK2 (Homo sapiens, UniProt P29597); experiment: Binding affinity to recombinant human TYK2 JH2 (564 to 876-His residues) pseudokinase domain by fluorescence polarization assay
[2] = target: T2, Tyrosine-protein kinase JAK2 (Homo sapiens, UniProt O60674); settings: dose 30-200 µM
[3] = target: T2, Tyrosine-protein kinase JAK2; settings: dose 30-200 µM; remark: listed apart in the source
[4] = target: T2, Tyrosine-protein kinase JAK2; settings: dose 30-200 µM; remark: listed apart in the source
BaF3 [5] = experiment: Cytotoxicity against IL-3 dependent humanized mouse BaF3 cells expressing wild type human JAK2 assessed as inhibition of cell growth incubated for 48 hrs by alamarBlue assay; format: functional, cell-based
BaF3 [6] = experiment: Cytotoxicity against IL-3 dependent humanized mouse BaF3 cells expressing human JAK2 V617F mutant assessed as inhibition of cell growth incubated for 48 hrs by alamarBlue assay; format: functional, cell-based
[7] = target: T3, Tyrosine-protein kinase JAK1 (Homo sapiens, UniProt P23458); experiment: Binding affinity to recombinant human JAK1 JH2 (553 to 856-His residues) pseudokinase domain by fluorescence polarization assay
[8] = target: T3, Tyrosine-protein kinase JAK1; experiment: Binding affinity to recombinant human JAK1 kinase domain by fluorescence polarization assay
[9] = target: T3, Tyrosine-protein kinase JAK1; experiment: Inhibition of recombinant human JAK1 assessed as inhibition of substrate phosphorylation measured every 5 mins for 30 mins by LANCE Ultra kinase assay
[10] = target: T1, Non-receptor tyrosine-protein kinase TYK2; experiment: Binding affinity to recombinant human TYK2 kinase domain by fluorescence polarization assay
[11] = target: T2, Tyrosine-protein kinase JAK2; experiment: Binding affinity to recombinant human JAK2 kinase domain by fluorescence polarization assay
[12] = target: T2, Tyrosine-protein kinase JAK2; experiment: Inhibition of JAK2-mediated erythropoietin-induced STAT5 phosphorylation in human TF-1 cells pretreated for 60 mins followed by erythropoietin addition and measured after 15 mins by pacific orange/pacific blue NHS esters based Beckmann coulter flow cytometer; format: cell-based
[13] = target: T1, Non-receptor tyrosine-protein kinase TYK2; experiment: Inhibition of recombinant human TYK2 assessed as inhibition of substrate phosphorylation measured every 5 mins for 30 mins by LANCE Ultra kinase assay
[14] = target: T2, Tyrosine-protein kinase JAK2; experiment: Inhibition of recombinant human JAK2 assessed as inhibition of substrate phosphorylation measured every 5 mins for 30 mins by LANCE Ultra kinase assay
[15] = target: T2, Tyrosine-protein kinase JAK2; experiment: Binding affinity to recombinant human JAK2 kinase domain (840 to 1132 residues) assessed as dissociation constant by ITC analysis
Homo sapiens [16] = species on record: Homo sapiens; experiment: Selectivity index, ratio of IC50 for inhibition of JAK1/JAK2-mediated IFNgamma-induced STAT1 phosphorylation in human whole blood CD33-positive monocytes to IC50 for inhibition of JAK1/TYK2-mediated IFN-alpha induced STAT1 phosphorylation in whole blood CD33-positive monocytes; format: cell-based
Homo sapiens [17] = species on record: Homo sapiens; experiment: Selectivity index, ratio of IC50 for inhibition of JAK1/JAK3-mediated IL-2 induced STAT5 phosphorylation in human whole blood CD4+ T cells to IC50 for inhibition of JAK1/TYK2-mediated IFN-alpha induced STAT1 phosphorylation in whole blood CD33-positive monocytes; format: cell-based
Homo sapiens [18] = species on record: Homo sapiens; experiment: Selectivity index, ratio of IC50 for inhibition of JAK2-mediated GM-CSF-induced STAT5 phosphorylation in human whole blood CD33-positive monocytes to IC50 for inhibition of JAK1/TYK2-mediated IFN-alpha induced STAT1 phosphorylation in whole blood CD33-positive monocytes; format: cell-based
[19] = target: T2, Tyrosine-protein kinase JAK2; experiment: Binding affinity to recombinant human JAK2 kinase domain (840 to 1132 residues) assessed as change in enthalpy at 30 to 200 uM by fluorescence polarization measurement combined ITC analysis; settings: dose 30-200 µM
[20] = target: T2, Tyrosine-protein kinase JAK2; experiment: Binding affinity to recombinant human JAK2 kinase domain (840 to 1132 residues) assessed as gibbs free energy change at 30 to 200 uM by fluorescence polarization measurement combined ITC analysis; settings: dose 30-200 µM
[21] = Selectivity index, ratio of IC50 for cytotoxicity against IL-3 dependent humanized mouse BaF3 cells expressing wild type human JAK2 to IC50 for cytotoxicity against IL-3 dependent humanized mouse BaF3 cells expressing human JAK2 V617F mutant; format: functional
Homo sapiens [22] = species on record: Homo sapiens; experiment: Selectivity index, ratio of IC50 for inhibition of JAK1-mediated IL-6 induced STAT3 phosphorylation in human whole blood CD33-positive monocytes to IC50 for inhibition of JAK1/TYK2-mediated IFN-alpha induced STAT1 phosphorylation in whole blood CD33-positive monocytes; format: cell-based
[23] = target: T2, Tyrosine-protein kinase JAK2; experiment: Binding affinity to recombinant human JAK2 kinase domain (840 to 1132 residues) assessed as dissociation constant by fluorescence polarization measurement combined ITC analysis
[24] = target: T4, Tyrosine-protein kinase JAK3 (Homo sapiens, UniProt P52333); experiment: Inhibition of recombinant human JAK3 assessed as inhibition of substrate phosphorylation measured every 5 mins for 30 mins by LANCE Ultra kinase assay
T4 sequence (P52333 whole entry): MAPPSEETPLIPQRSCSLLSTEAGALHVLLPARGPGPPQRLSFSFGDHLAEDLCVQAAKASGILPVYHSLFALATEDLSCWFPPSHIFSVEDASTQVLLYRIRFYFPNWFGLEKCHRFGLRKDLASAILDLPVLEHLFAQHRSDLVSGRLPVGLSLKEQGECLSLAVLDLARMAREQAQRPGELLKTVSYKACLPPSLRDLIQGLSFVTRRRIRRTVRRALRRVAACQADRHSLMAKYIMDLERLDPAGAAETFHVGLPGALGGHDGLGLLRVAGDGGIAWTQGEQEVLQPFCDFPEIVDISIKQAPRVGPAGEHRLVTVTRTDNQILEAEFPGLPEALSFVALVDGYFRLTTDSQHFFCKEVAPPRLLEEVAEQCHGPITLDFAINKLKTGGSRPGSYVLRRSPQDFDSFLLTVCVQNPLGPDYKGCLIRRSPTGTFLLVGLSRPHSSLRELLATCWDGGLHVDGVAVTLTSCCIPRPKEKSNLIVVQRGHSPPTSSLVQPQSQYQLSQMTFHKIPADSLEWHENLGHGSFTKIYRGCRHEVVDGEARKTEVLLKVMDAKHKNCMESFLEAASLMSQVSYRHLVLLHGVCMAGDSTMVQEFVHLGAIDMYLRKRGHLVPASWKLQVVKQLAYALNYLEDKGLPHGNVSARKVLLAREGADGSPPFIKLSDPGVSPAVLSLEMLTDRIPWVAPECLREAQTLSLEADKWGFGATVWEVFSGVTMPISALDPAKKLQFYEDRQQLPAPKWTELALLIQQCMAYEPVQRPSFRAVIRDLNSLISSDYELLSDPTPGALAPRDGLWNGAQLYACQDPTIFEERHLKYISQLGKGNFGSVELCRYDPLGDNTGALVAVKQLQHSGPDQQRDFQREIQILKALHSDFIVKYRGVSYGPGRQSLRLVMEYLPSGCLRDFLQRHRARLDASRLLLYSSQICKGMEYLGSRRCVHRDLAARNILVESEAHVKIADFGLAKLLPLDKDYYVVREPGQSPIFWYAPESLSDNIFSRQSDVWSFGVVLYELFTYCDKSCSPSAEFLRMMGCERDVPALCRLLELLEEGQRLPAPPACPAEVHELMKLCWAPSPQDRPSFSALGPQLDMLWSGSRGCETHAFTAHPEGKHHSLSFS

[25] = target: T4, Tyrosine-protein kinase JAK3; experiment: Binding affinity to recombinant human JAK3 kinase domain by fluorescence polarization assay
[26] = target: T2, Tyrosine-protein kinase JAK2; experiment: Binding affinity to recombinant human JAK2 kinase domain (840 to 1132 residues) assessed as change in entropy at 30 to 200 uM by fluorescence polarization measurement combined ITC analysis; settings: dose 30-200 µM
Homo sapiens [27] = species on record: Homo sapiens; experiment: Selectivity index, ratio of IC50 for recombinant human JAK1 kinase domain to IC50 for recombinant human JAK2 kinase domain

T2 sequence (O60674 whole entry): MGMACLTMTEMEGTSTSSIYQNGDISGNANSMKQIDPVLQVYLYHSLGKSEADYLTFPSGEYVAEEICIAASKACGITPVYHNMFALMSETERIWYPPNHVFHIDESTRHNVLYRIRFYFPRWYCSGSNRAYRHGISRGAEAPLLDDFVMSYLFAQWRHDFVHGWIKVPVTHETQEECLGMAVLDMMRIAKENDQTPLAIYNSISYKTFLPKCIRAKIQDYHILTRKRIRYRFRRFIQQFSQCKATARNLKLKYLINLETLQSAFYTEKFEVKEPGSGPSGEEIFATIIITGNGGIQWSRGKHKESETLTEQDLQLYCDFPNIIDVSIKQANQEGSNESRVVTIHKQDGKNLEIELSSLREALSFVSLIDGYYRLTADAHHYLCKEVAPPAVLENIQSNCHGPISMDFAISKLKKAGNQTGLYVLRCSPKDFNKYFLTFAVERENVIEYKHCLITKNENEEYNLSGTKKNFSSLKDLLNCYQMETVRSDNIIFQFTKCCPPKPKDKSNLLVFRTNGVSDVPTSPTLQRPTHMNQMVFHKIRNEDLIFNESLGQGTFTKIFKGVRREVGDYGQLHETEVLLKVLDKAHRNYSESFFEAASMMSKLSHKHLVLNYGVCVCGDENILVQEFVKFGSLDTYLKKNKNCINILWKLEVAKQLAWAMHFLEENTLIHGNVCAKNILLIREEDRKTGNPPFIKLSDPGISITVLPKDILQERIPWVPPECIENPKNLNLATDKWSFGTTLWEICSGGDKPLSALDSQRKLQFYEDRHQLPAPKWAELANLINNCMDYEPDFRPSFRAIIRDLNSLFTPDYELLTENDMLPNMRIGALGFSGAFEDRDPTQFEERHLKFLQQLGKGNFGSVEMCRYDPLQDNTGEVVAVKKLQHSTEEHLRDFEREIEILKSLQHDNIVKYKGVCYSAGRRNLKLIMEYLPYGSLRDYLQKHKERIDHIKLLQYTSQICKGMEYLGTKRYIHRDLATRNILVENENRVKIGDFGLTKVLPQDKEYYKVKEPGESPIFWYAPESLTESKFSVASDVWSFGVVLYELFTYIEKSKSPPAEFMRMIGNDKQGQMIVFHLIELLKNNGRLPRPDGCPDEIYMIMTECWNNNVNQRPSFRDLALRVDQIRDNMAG
T1 sequence (P29597 whole entry, the tested form may be a part): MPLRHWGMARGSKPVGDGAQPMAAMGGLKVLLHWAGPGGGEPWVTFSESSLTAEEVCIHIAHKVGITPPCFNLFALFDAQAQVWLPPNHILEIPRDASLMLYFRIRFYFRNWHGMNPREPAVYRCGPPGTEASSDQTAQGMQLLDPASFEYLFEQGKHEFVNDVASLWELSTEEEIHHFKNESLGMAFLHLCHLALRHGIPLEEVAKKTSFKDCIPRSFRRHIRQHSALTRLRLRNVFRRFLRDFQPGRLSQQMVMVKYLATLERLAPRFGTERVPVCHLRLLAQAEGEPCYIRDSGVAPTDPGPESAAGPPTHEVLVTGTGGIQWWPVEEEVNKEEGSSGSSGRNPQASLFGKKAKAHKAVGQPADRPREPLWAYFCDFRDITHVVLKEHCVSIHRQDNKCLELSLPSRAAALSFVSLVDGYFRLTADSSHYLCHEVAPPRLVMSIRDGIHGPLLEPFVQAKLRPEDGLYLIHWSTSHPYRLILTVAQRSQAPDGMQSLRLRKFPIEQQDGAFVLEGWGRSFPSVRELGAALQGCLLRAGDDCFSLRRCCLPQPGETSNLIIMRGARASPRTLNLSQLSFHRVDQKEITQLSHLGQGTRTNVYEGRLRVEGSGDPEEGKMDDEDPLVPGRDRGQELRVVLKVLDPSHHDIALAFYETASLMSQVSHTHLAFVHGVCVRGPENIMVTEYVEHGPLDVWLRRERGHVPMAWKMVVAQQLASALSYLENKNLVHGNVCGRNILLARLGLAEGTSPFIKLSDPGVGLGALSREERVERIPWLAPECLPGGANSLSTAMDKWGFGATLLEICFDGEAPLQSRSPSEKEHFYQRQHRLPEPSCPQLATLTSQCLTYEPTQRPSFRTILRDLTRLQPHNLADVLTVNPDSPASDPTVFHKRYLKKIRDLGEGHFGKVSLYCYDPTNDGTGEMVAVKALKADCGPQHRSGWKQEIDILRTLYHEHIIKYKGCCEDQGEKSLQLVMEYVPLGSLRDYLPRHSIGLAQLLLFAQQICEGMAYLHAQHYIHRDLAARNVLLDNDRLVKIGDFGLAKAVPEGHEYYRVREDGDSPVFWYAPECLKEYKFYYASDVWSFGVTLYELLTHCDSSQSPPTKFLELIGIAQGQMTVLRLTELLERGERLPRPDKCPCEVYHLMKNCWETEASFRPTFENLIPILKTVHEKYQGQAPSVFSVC
T3 sequence (P23458 whole entry, the tested form may be a part): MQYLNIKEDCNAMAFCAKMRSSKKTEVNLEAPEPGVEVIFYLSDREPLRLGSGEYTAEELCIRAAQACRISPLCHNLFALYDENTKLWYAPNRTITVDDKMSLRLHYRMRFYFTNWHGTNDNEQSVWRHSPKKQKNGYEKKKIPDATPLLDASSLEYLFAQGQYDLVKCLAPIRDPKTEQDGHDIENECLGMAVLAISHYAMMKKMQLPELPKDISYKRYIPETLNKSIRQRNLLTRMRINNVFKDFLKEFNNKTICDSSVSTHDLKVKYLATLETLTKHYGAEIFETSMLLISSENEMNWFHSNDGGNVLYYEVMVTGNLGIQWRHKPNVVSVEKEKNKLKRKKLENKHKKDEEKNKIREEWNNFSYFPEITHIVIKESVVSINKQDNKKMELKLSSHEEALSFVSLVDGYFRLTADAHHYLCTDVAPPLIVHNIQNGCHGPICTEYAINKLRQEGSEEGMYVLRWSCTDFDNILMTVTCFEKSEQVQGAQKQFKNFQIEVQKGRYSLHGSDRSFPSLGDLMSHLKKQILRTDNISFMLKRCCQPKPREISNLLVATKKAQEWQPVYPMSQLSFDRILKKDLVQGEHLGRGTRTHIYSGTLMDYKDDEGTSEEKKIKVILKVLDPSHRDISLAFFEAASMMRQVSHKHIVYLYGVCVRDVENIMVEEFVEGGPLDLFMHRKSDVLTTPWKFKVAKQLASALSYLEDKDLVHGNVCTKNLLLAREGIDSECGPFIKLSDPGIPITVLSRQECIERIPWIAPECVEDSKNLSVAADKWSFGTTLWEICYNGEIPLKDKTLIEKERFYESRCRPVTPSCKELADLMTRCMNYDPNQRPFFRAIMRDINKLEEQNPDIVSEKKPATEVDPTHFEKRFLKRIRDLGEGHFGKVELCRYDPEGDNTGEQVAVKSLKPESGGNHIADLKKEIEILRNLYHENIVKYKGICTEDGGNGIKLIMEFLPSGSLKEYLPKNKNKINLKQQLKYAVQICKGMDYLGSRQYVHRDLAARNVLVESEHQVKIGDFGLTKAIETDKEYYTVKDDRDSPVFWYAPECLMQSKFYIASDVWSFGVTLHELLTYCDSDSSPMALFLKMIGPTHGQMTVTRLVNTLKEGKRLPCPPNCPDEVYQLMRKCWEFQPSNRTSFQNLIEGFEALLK

| -TdeltaS [2] [kcal/mol] | deltaH [3] [kcal/mol] | deltaG [4] [kcal/mol] | Kd [8] [nM] | IC50 [9] [nM] | Kd [10] [nM] | Kd [11] [nM] | IC50 [12] [nM] | IC50 [13] [nM] | IC50 [14] [nM] | Compound | further results |
| --- | --- | --- | --- | --- | --- | --- | --- | --- | --- | --- | --- |
| -3.3 | -7.6 | -10.9 |  |  |  |  |  |  |  | C1=N/C2=N/c3ccc(OCCN4CCCC4)c(c3)COC/C=C/COCc3cccc(c3)C(=C1)N2 | Activity [1]: Active |
|  |  |  |  |  |  |  |  |  |  | C[C@]12O[C@H](C[C@]1(O)CO)n1c3ccccc3c3c4c(c5c6ccccc6n2c5c31)CNC4=O | Activity (BaF3 [5]): Active; Activity (BaF3 [6]): Active |
| 3.2 | -14.4 | -11.3 |  |  |  |  |  |  |  | N#CCNC(=O)c1ccc(-c2ccnc(Nc3ccc(N4CCOCC4)cc3)n2)cc1 |  |
|  |  |  |  |  |  |  |  |  |  | N#CC[C@H](C1CCCC1)n1cc(-c2ncnc3[nH]ccc23)cn1 | Activity (BaF3 [5]): Active; Activity (BaF3 [6]): Active |
|  |  |  |  |  |  |  |  |  |  | O=C(Nc1c[nH]nc1-c1nc2ccc(CN3CCOCC3)cc2[nH]1)NC1CC1 | Activity [1]: Active; Activity [7]: Active |
|  |  |  | 37 | 65 |  |  |  |  |  | O=C(Nc1c[nH]nc1-c1nc2cc(CN3CCOCC3)ccc2[nH]1)NC1CC1 [AT-9283] |  |
| -0.4 | -10.4 | -10.8 | 23 | 22 | 6.9 | 4.8 | 99 | 26 | 11 | CCS(=O)(=O)N1CCN(c2ccc(Nc3ncc(C(N)=O)c(NC4CC4)n3)cc2)CC1 [CERDULATINIB] | Activity [1]: Active; Activity [7]: Active; Kd [15]: 8.9 nM |
|  |  |  | 8.2 | 7.3 | 16 | 11 | 155 | 92 | 6.2 | Cc1cc(Nc2cc(CN3CCOCC3)c3nc(C)c(Cc4ccc(Cl)cc4F)n3n2)n[nH]1 [GANDOTINIB] | Ratio IC50 (Homo sapiens [16]): 2.3; Ratio IC50 (Homo sapiens [17]): 1.1; Ratio IC50 (Homo sapiens [18]): 7.5; deltaH [19]: -4.1 kcal/mol; deltaG [20]: -10.7 kcal/mol; Ratio IC50 [21]: 1.5; Ratio IC50 (Homo sapiens [22]): 4; Kd [23]: 11 nM; IC50 [24]: 199 nM; Kd [25]: 13 nM; -TdeltaS [26]: -6.6 kcal/mol |
| -5.4 | -5.4 | -10.7 | 51 | 3.4 | 385 | 26 | 488 | 4100 | 54 | N#CCC1(n2cc(-c3ncnc4[nH]ccc34)cn2)CN(C2CCN(C(=O)c3ccnc(C(F)(F)F)c3F)CC2)C1 [ITACITINIB] | Ratio IC50 (Homo sapiens [16]): 0.8; Ratio IC50 (Homo sapiens [17]): 0.4; Ratio IC50 (Homo sapiens [18]): 16.7; Ratio IC50 (Homo sapiens [22]): 1.2; IC50 [24]: 10800 nM; Kd [25]: 324 nM; Kd [15]: 10.7 nM |
| 1.2 | -12.5 | -11.3 | 16 | 7.1 | 21 | 4.5 | 41 | 216 | 0.8 | C[C@H](Nc1cc(-c2cnn(C)c2)cc(Nc2cnccn2)n1)c1ccc(F)cc1 [NS-018] | Ratio IC50 (Homo sapiens [27]): 9; Ratio IC50 (Homo sapiens [16]): 0.6; Ratio IC50 (Homo sapiens [17]): 1.7; Ratio IC50 (Homo sapiens [18]): 5.8; Ratio IC50 (Homo sapiens [22]): 2.8; IC50 [24]: 182 nM; Kd [25]: 19 nM; Kd [15]: 4 nM |
|  |  |  | 318 | 371 | 125 |  |  | 536 |  | C1=C/COCc2cc(ccc2OCCN2CCCC2)Nc2nccc(n2)-c2cccc(c2)COC/1 [PACRITINIB] |  |
